Data on 28 substances can be found in patent US20120016009A1, “Optimized Methods For Delivery Of DSRNA Targeting The PCSK9 Gene” (priority 2008, published 2012).

In the oligonucleotide strings, read from the 5' end, every base follows the letter of its sugar. An asterisk marks phosphorothioate; unmarked linkages are phosphodiester. Other units and linkages are bracketed, terminal groups are in braces. A string of capitals states the bases alone. d = 2'-deoxy (DNA); r = 2'-OH (RNA)

In the series the test system is PCSK9 mRNA. Put plainly: PCSK9 siRNA screening in HepG2 cells (lipofectamine 2000 transfection, PCSK9 mRNA by Quantigene, normalized to GAP-DH). As to conditions: for Mean percent remaining mRNA transcript at siRNA concentration/in cell type 30 nM/HepG2: 30 nM siRNA; for Mean percent remaining mRNA transcript at siRNA concentration/in cell type 3 nM/HepG2: 3 nM siRNA. It counts as cell-based, human. Here is the method:
HuH-7 cells were obtained from JCRB Cell Bank (Japanese Collection of Research Bioresources) (Shinjuku, Japan, cat. No.: JCRB0403) Cells were cultured in Dulbecco's MEM (Biochrom AG, Berlin, Germany, cat. No. F0435) supplemented to contain 10% fetal calf serum (FCS) (Biochrom AG, Berlin, Germany, cat. No. S0115), Penicillin 100 U/ml, Streptomycin 100 μg/ml (Biochrom AG, Berlin, Germany, cat. No. A2213) and 2 mM L-Glutamin (Biochrom AG, Berlin, Germany, cat. No K0282) at 37° C. in an atmosphere with 5% CO2 in a humidified incubator (Heraeus HERAcell, Kendro Laboratory Products, Langenselbold, Germany) HepG2 and HeLa cells were obtained from American Type Culture Collection (Rockville, Md., cat. No. HB-8065) and cultured in MEM (Gibco Invitrogen, Karlsruhe, Germany, cat. No. 21090-022) supplemented to contain 10% fetal calf serum (FCS) (Biochrom AG, Berlin, Germany, cat. No. S0115), Penicillin 100 U/ml, Streptomycin 100 μg/ml (Biochrom AG, Berlin, Germany, cat. No. A2213), 1× Non Essential Amino Acids (Biochrom AG, Berlin, Germany, cat. No. K-0293), and 1 mM Sodium Pyruvate (Biochrom AG, Berlin, Germany, cat. No. L-0473) at 37° C. in an atmosphere with 5% CO2 in a humidified incubator (Heraeus HERAcell, Kendro Laboratory Products, Langenselbold, Germany).
For transfection with siRNA, HuH7, HepG2, or HeLa cells were seeded at a density of 2.0×10^4 cells/well in 96-well plates and transfected directly. Transfection of siRNA (30 nM for single dose screen) was carried out with lipofectamine 2000 (Invitrogen GmbH, Karlsruhe, Germany, cat. No. 11668-019) as described by the manufacturer.
24 hours after transfection HuH7 and HepG2 cells were lysed and PCSK9 mRNA levels were quantified with the Quantigene Explore Kit (Genosprectra, Dumbarton Circle Fremont, USA, cat. No. QG-000-02) according to the protocol. PCSK9 mRNA levels were normalized to GAP-DH mRNA. For each siRNA eight individual datapoints were collected. siRNA duplexes unrelated to PCSK9 gene were used as control. The activity of a given PCSK9 specific siRNA duplex was expressed as percent PCSK9 mRNA concentration in treated cells relative to PCSK9 mRNA concentration in cells treated with the control siRNA duplex.
Tables 1b and 2b (and FIG. 6A) summarize the results and provide examples of in vitro screens in different cell lines at different doses. Silencing of PCSK9 transcript was expressed as percentage of remaining transcript at a given dose.
Very active sequences are those that have less than 60% of transcript remaining after treatment with a dose less than or equal to 100 nM. Active sequences are those that have less than 90% transcript remaining after treatment with a high dose (100 nM).

As to “AD-9540: PCSK9 siRNA (sense rArGrArGrUrGrArCrCrArCrCrGrGrGrArArArUdT*dT; antisense rArUrUrUrCrCrCrGrGrUrGrGrUrCrArCrUrCrUdT*dT)”, the “Mean percent remaining mRNA transcript at siRNA concentration/in cell type 30 nM/HepG2” value is given as 45%.

On to “AD-9541: PCSK9 siRNA (sense rGrGrUrGrArGrGrGrUrGrUrCrUrArCrGrCrCrAdT*dT; antisense rUrGrGrCrGrUrArGrArCrArCrCrCrUrCrArCrCdT*dT)”, for which the “Mean percent remaining mRNA transcript at siRNA concentration/in cell type 30 nM/HepG2” value is given as 43%.

On to “AD-9542: PCSK9 siRNA (sense rArUrCrGrArGrGrGrCrArGrGrGrUrCrArUrGrGdT*dT; antisense rCrCrArUrGrArCrCrCrUrGrCrCrCrUrCrGrArUdT*dT)”, for which the “Mean percent remaining mRNA transcript at siRNA concentration/in cell type 30 nM/HepG2” value is reported as 160%.

Consider “AD-9543: PCSK9 siRNA (sense rCrGrCrGrUrGrCrUrCrArArCrUrGrCrCrArArGdT*dT; antisense rCrUrUrGrGrCrArGrUrUrGrArGrCrArCrGrCrGdT*dT)”, for which the “Mean percent remaining mRNA transcript at siRNA concentration/in cell type 30 nM/HepG2” value is 51%.

Regarding “AD-9544: PCSK9 siRNA (sense rUrGrArGrGrArCrCrArGrCrGrGrGrUrArCrUrGdT*dT; antisense rCrArGrUrArCrCrCrGrCrUrGrGrUrCrCrUrCrAdT*dT)”, the “Mean percent remaining mRNA transcript at siRNA concentration/in cell type 30 nM/HepG2” value is reported as 68%.

Turning to “AD-9545: PCSK9 siRNA (sense rArGrUrCrArArGrGrArGrCrArUrGrGrArArUrCdT*dT; antisense rGrArUrUrCrCrArUrGrCrUrCrCrUrUrGrArCrUdT*dT)”, the “Mean percent remaining mRNA transcript at siRNA concentration/in cell type 3 nM/HepG2” value came to 43% and the “Mean percent remaining mRNA transcript at siRNA concentration/in cell type 30 nM/HepG2” value was 31%.

As for “AD-9546: PCSK9 siRNA (sense rUrArGrCrCrUrUrGrCrGrUrUrCrCrGrArGrGrAdT*dT; antisense rUrCrCrUrCrGrGrArArCrGrCrArArGrGrCrUrAdT*dT)”, the “Mean percent remaining mRNA transcript at siRNA concentration/in cell type 30 nM/HepG2” value is recorded as 32%.

Take “AD-9547: PCSK9 siRNA (sense rCrUrCrGrCrArGrUrCrArGrArGrCrGrCrArCrUdT*dT; antisense rArGrUrGrCrGrCrUrCrUrGrArCrUrGrCrGrArGdT*dT)”: 200 pM corresponded to half-maximal inhibition (IC50), the “Mean percent remaining mRNA transcript at siRNA concentration/in cell type 3 nM/HepG2” value turned out to be 29% and the “Mean percent remaining mRNA transcript at siRNA concentration/in cell type 30 nM/HepG2” value amounted to 31%.

Take “AD-9548: PCSK9 siRNA (sense rGrCrArGrUrCrArGrArGrCrGrCrArCrUrGrCrCdT*dT; antisense rGrGrCrArGrUrGrCrGrCrUrCrUrGrArCrUrGrCdT*dT)”: the “Mean percent remaining mRNA transcript at siRNA concentration/in cell type 3 nM/HepG2” value turned out to be 60% and the “Mean percent remaining mRNA transcript at siRNA concentration/in cell type 30 nM/HepG2” value is on record as 54%.

With “AD-9549: PCSK9 siRNA (sense rGrGrGrCrCrCrArCrArArCrGrCrUrUrUrUrGrGdT*dT; antisense rCrCrArArArArGrCrGrUrUrGrUrGrGrGrCrCrCdT*dT)”, the “Mean percent remaining mRNA transcript at siRNA concentration/in cell type 30 nM/HepG2” value stood at 50%.

Take “AD-9550: PCSK9 siRNA (sense rGrArGrGrGrUrGrUrCrUrArCrGrCrCrArUrUrGdT*dT; antisense rCrArArUrGrGrCrGrUrArGrArCrArCrCrCrUrCdT*dT)”: the “Mean percent remaining mRNA transcript at siRNA concentration/in cell type 30 nM/HepG2” value turned out to be 36%.

As to “AD-9551: PCSK9 siRNA (sense UGGCGGGUGGGUACAGCCGTsT; antisense CGGCUGUACCCACCCGCCATsT; as printed in the source, key not given here)”, the “Mean percent remaining mRNA transcript at siRNA concentration/in cell type 30 nM/HepG2” value is 91%.

With “AD-9552: PCSK9 siRNA (sense rArGrGrArGrCrArUrGrGrArArUrCrCrCrGrGrCdT*dT; antisense rGrCrCrGrGrGrArUrUrCrCrArUrGrCrUrCrCrUdT*dT)”, the “Mean percent remaining mRNA transcript at siRNA concentration/in cell type 30 nM/HepG2” value came to 80%.

On to “AD-9553: PCSK9 siRNA (sense rUrCrUrArGrArCrCrUrGrUrUrUrUrGrCrUrUrUdT*dT; antisense rArArArGrCrArArArArCrArGrGrUrCrUrArGrAdT*dT)”, for which the IC50 was found to be 20 pM, the “Mean percent remaining mRNA transcript at siRNA concentration/in cell type 3 nM/HepG2” value amounted to 22% and the “Mean percent remaining mRNA transcript at siRNA concentration/in cell type 30 nM/HepG2” value was 27%.

On to “AD-9554: PCSK9 siRNA (sense rUrUrCrUrArGrArCrCrUrGrUrUrUrUrGrCrUrUdT*dT; antisense rArArGrCrArArArArCrArGrGrUrCrUrArGrArAdT*dT)”, for which the “Mean percent remaining mRNA transcript at siRNA concentration/in cell type 3 nM/HepG2” value worked out at 24% and the “Mean percent remaining mRNA transcript at siRNA concentration/in cell type 30 nM/HepG2” value was determined as 23%.

In the case of “AD-9555: PCSK9 siRNA (sense rGrUrCrArGrGrArGrCrCrGrGrGrArCrGrUrCrAdT*dT; antisense rUrGrArCrGrUrCrCrCrGrGrCrUrCrCrUrGrArCdT*dT)”, the “Mean percent remaining mRNA transcript at siRNA concentration/in cell type 30 nM/HepG2” value stood at 34%.

With “AD-9556: PCSK9 siRNA (sense rUrGrGrUrGrGrArGrGrUrGrUrArUrCrUrCrCrUdT*dT; antisense rArGrGrArGrArUrArCrArCrCrUrCrCrArCrCrAdT*dT)”, the “Mean percent remaining mRNA transcript at siRNA concentration/in cell type 30 nM/HepG2” value was 46%.

As to “AD-9557: PCSK9 siRNA (sense rCrCrArCrCrGrGrGrArArArUrCrGrArGrGrGrCdT*dT; antisense rGrCrCrCrUrCrGrArUrUrUrCrCrCrGrGrUrGrGdT*dT)”, the “Mean percent remaining mRNA transcript at siRNA concentration/in cell type 30 nM/HepG2” value stood at 96%. Moreover, the “Mean percent remaining mRNA transcript at siRNA concentration/in cell type 100 nM/HepG2” value (100 nM siRNA) was 75%.

On to “AD-9558: PCSK9 siRNA (sense rUrArUrCrUrUrUrUrGrGrGrUrCrUrGrUrCrCrUdT*dT; antisense rArGrGrArCrArGrArCrCrCrArArArArGrArUrAdT*dT)”, for which the “Mean percent remaining mRNA transcript at siRNA concentration/in cell type 30 nM/HepG2” value was 66%.

As for “AD-9559: PCSK9 siRNA (sense rGrUrGrArCrCrArCrCrGrGrGrArArArUrCrGrAdT*dT; antisense rUrCrGrArUrUrUrCrCrCrGrGrUrGrGrUrCrArCdT*dT)”, the “Mean percent remaining mRNA transcript at siRNA concentration/in cell type 30 nM/HepG2” value is reported as 35%.

Regarding “AD-9560: PCSK9 siRNA (sense rGrArGrUrUrUrArUrUrCrGrGrArArArArGrCrCdT*dT; antisense rGrGrCrUrUrUrUrCrCrGrArArUrArArArCrUrCdT*dT)”, the “Mean percent remaining mRNA transcript at siRNA concentration/in cell type 30 nM/HepG2” value came out at 97%.

Turning to “AD-9561: PCSK9 siRNA (sense rGrArCrArCrCrArGrCrArUrArCrArGrArGrUrGdT*dT; antisense rCrArCrUrCrUrGrUrArUrGrCrUrGrGrUrGrUrCdT*dT)”, the “Mean percent remaining mRNA transcript at siRNA concentration/in cell type 30 nM/HepG2” value amounted to 64%.

As for “AD-9562: PCSK9 siRNA (sense rUrCrUrCrCrUrArGrArCrArCrCrArGrCrArUrAdT*dT; antisense rUrArUrGrCrUrGrGrUrGrUrCrUrArGrGrArGrAdT*dT)”, the “Mean percent remaining mRNA transcript at siRNA concentration/in cell type 3 nM/HepG2” value came to 51% and the “Mean percent remaining mRNA transcript at siRNA concentration/in cell type 30 nM/HepG2” value is given as 46%.

In the case of “AD-9563: PCSK9 siRNA (sense rCrGrCrUrGrCrCrGrGrCrArArCrUrUrCrCrGrGdT*dT; antisense rCrCrGrGrArArGrUrUrGrCrCrGrGrCrArGrCrGdT*dT)”, the “Mean percent remaining mRNA transcript at siRNA concentration/in cell type 30 nM/HepG2” value worked out at 103%.

Regarding “AD-9564: PCSK9 siRNA (sense rUrCrArUrUrGrGrUrGrCrCrUrCrCrArGrCrGrAdT*dT; antisense rUrCrGrCrUrGrGrArGrGrCrArCrCrArArUrGrAdT*dT)”, the “Mean percent remaining mRNA transcript at siRNA concentration/in cell type 30 nM/HepG2” value is on record as 120%.

Regarding “AD-9565: PCSK9 siRNA (sense rUrArCrUrCrUrGrCrUrCrUrArUrGrCrCrArGrGdT*dT; antisense rCrCrUrGrGrCrArUrArGrArGrCrArGrArGrUrAdT*dT)”, the “Mean percent remaining mRNA transcript at siRNA concentration/in cell type 30 nM/HepG2” value is 74%.

As to “AD-9566: PCSK9 siRNA (sense rUrGrCrCrGrGrGrCrCrCrArCrArArCrGrCrUrUdT*dT; antisense rArArGrCrGrUrUrGrUrGrGrGrCrCrCrGrGrCrAdT*dT)”, the “Mean percent remaining mRNA transcript at siRNA concentration/in cell type 30 nM/HepG2” value amounted to 38%.

Turning to “AD-9567: PCSK9 siRNA (sense rCrGrCrUrGrUrGrUrGrGrArCrCrUrCrUrUrUrGdT*dT; antisense rCrArArArGrArGrGrUrCrCrArCrArCrArGrCrGdT*dT)”, the “Mean percent remaining mRNA transcript at siRNA concentration/in cell type 30 nM/HepG2” value was found to be 41%.

A word on the IC50: it is the concentration that gives 50% inhibition. Low readings indicate greater potency in that assay, high ones weaker potency in that assay.
